{
  "source": "paper PMC6684654",
  "about": "(Nature Communications, 2019)",
  "key": {"NDM-1": {"molecular_target": "NDM-1 (Klebsiella pneumoniae, UniProt C7C422)", "sequence (C7C422 20-270, looked up, natural form)": "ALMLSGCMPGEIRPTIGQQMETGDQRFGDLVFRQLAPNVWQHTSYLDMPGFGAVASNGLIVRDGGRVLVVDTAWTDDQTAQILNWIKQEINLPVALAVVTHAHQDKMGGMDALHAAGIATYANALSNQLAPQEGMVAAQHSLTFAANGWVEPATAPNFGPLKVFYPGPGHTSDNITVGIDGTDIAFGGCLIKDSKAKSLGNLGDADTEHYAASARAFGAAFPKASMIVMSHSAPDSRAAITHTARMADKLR", "settings": "cited from earlier work", "source_text": "NDM-1 inhibitors, which antagonize multiple subtypes of metallo-β-lactamases and protect β-lactam antibiotics from being hydrolyzed, have been widely studied for synergistic application with β-lactam antibiotics to restore their bactericidal effects[15],[25],[26]. The most common mechanism of metallo-β-lactamase inhibitors is metal ion binding."}, "[1]": {"system": "NDM-1 in E. coli XJ141026 supernatant", "assay": "Imipenem hydrolysis by culture supernatant", "assay_type": "biochemical", "description": "(§1) NDM-1 level in the filtered supernatant was measured using a specific ELISA kit (Shanghai Enzyme-linked Biotechnology Co., Ltd., China) and western blot analysis. Imipenem hydrolysis in the filtered supernatant at 6 h was monitored using a Biotek powerwave HT microplate spectrophotometer at 30 °C by determining the changes in absorbance at 300 nm, with a final substrate concentration of 100 μM."}, "NDM-1 E. coli XJ141015": {"system": "NDM-1 E. coli XJ141015", "assay": "MIC, broth microdilution", "assay_type": "cell-based", "settings": "MHB, 5 × 10^5 CFU/mL, 16 h, 37 °C", "source_text": "(§2) MIC values were identified through microdilution in sterilized 96-well polypropylene microtiter plates according to the broth microdilution guideline of the Clinical and Laboratory Standards Institute[30]. The test medium was Mueller–Hinton broth (MHB), and the strain concentrations were adjusted to 5 × 10^5 CFU/mL."}, "NDM-1 E. coli XJ141026": {"system": "NDM-1 E. coli XJ141026", "assay": "MIC, broth microdilution", "assay_type": "cell-based", "settings": "MHB, 5 × 10^5 CFU/mL, 16 h, 37 °C", "source_text": "as §2"}, "NDM-1 E. coli XJ141047": {"system": "NDM-1 E. coli XJ141047", "assay": "MIC, broth microdilution", "assay_type": "cell-based", "settings": "MHB, 5 × 10^5 CFU/mL, 16 h, 37 °C", "source_text": "as §2"}, "[2]": {"system": "NDM-1 K. pneumoniae XJ155019", "assay": "MIC, broth microdilution", "assay_type": "cell-based", "settings": "MHB, 5 × 10^5 CFU/mL, 16 h, 37 °C", "source_text": "as §2"}, "[3]": {"system": "NDM-1 K. pneumoniae XJ155020", "assay": "MIC, broth microdilution", "assay_type": "cell-based", "settings": "MHB, 5 × 10^5 CFU/mL, 16 h, 37 °C", "source_text": "as §2"}, "[4]": {"system": "NDM-1 in E. coli XJ141026", "assay": "NDM-1 levels in supernatants and cell precipitates (western blot)", "assay_type": "cell-based", "settings": "0.8, 1.6, 3.2 μM; 6 h", "description": "as §1\nSoluble total protein concentration was determined and normalized with the Pierce BCA Protein Assay Kit (Thermo Fisher Scientific, Waltham, MA, USA). NDM-1 levels in the cells were measured by SDS-PAGE followed by western blot analysis. The primary antibody against NDM-1 was obtained from Detai Bio-Tech Co., Ltd. by immunizing New Zealand white rabbits with purified NDM-1 protein and further detected by horseradish peroxidase-conjugated anti-rabbit secondary antibody (Santa Cruz Biotechnology Inc., USA). Anti-GroEL antibody (Abcam, ab82592) was used to verify protein loading transferred to the membranes. To clearly normalize the levels of NDM-1, we investigated the two proteins on the same membrane. […] Protein band intensities were quantified from polyvinylidene difluoride membranes with ImageJ software."}, "[5]": {"system": "NDM-1 in E. coli XJ141026 cell precipitates", "assay": "Imipenem hydrolysis by cell precipitates", "assay_type": "biochemical", "settings": "100 μM imipenem (50 μL of 200 μM), 30 °C; treated 6 h", "quoted_text": "The cell pellet was washed and resuspended in 20 mM Tris-HCl (pH = 7.4) to evaluate imipenem hydrolysis in bacterial cell precipitates. The concentrations were equalized by adjusting the absorbance values to OD600 = 0.3 in the same buffer. After 50 μL of the diluted bacterial cell suspension was transferred to a 96-well plate, 50 μL of 200 μM imipenem was added to measure the hydrolytic activity of NDM-1 and 50 μL of 20 mM Tris-HCl (pH = 7.4) was added as blank. The assays were monitored at 300 nm by using a Biotek powerwave HT microplate spectrophotometer at 30 °C. Data were corrected by subtracting the absorbance values obtained from the blanks."}, "apo-NDM-1": {"molecular_target": "apo-NDM-1 (Klebsiella pneumoniae, UniProt C7C422)", "sequence (C7C422 20-270, looked up, natural form)": "as above", "assay_type": "binding", "settings": "50 mM HEPES pH 7.4, 0.05% Tween-20, RED-tris-NTA label, triplicate", "quoted_text": "Briefly, apo-NDM-1 was derived from the purified NDM-1 obtained above by the two rounds of dialysis against 100 volumes of 10 mM HEPES, 200 mM NaCl, and 20 mM EDTA at pH = 7.4 over a 12 h period under stirring. EDTA was removed from the resulting apoenzyme solution by three dialysis steps against 200 volumes of 10 mM HEPES, 1 M NaCl, pH = 7.4, Chelex 100 and finally three dialysis steps against 200 volumes of 50 mM HEPES, 200 mM NaCl, pH = 7.4, and Chelex 100. All buffer solutions used to prepare the apoenzymes were treated by stirring with Chelex 100 (Bio-Rad). Zinc content in the apoprotein samples was checked using ICP-MS, and apo-NDM-1 contains less than 0.2 molar equivalents of zinc ion.\nApo-NDM-1 carrying a polyhistidine-tag (His-tag) was labeled with the RED-tris-NTA second-generation dye for 30 min at room temperature in the dark according to the manufacturer’s instructions (Monolith His-tag Labeling Kit RED-tris-NTA 2nd generation, Nanotemper Technologies GmbH). […] Then, 100 nM labeled NDM-1 protein was added to the serial dilution of the compound in a 1:1 volume ratio. After incubation for 30 min at room temperature, the samples were examined with Monolith NT.115 in Premium Capillaries (MO-K025) at medium MST power and 5% LED/excitation power. Kd values were determined using the Monolith Affinity Analysis Kd fit from triplicate experiments."}, "[6]": {"system": "NDM-1 in E. coli XJ141026 culture supernatant", "assay": "NDM-1 release to culture supernatant (ELISA)", "assay_type": "cell-based", "settings": "0.8, 1.6, 3.2 μM; 6 or 12 h", "description": "as §1"}},
  "data": [
    {"molecule": "N[C@H](CN[C@H](CN[C@@H](CC(=O)O)C(=O)O)C(=O)O)C(=O)O", "note": "[aspergillomarasmine A]", "values": [
      {"measurement": "NDM-1 inhibition in words", "setting": "NDM-1", "value": "inhibits the NDM-1 protease activity by chelating zinc ions from the active site"}
    ]},
    {"molecule": "Colistin", "values": [
      {"measurement": "hydrolysis of imipenem by supernatant", "setting": "[1]; 100 μM imipenem, 30 °C, treated 6 h", "value": "strong hydrolytic activity to imipenem"},
      {"measurement": "effect on NDM-1 activity", "setting": "[1]; Discussion", "value": "almost no effect on NDM-1 activity"},
      {"measurement": "MIC", "setting": "NDM-1 E. coli XJ141015", "value": 1.7, "unit": "µM"},
      {"measurement": "MIC", "setting": "NDM-1 E. coli XJ141026", "value": 0.85, "unit": "µM"},
      {"measurement": "MIC", "setting": "NDM-1 E. coli XJ141047", "value": 1.7, "unit": "µM"},
      {"measurement": "MIC", "setting": "[2]", "value": 6.8, "unit": "µM"},
      {"measurement": "MIC", "setting": "[3]", "value": 6.8, "unit": "µM"},
      {"measurement": "NDM-1 level in cell precipitates", "setting": "[4]", "value": "decreased"},
      {"measurement": "hydrolysis rate of precipitates", "setting": "[5]", "value": "consistently decreased with increasing thanatin or colistin concentration"},
      {"measurement": "Kd", "setting": "apo-NDM-1", "value": "61.7 ± 4.92", "unit": "µM"},
      {"measurement": "NDM-1 release into solution", "setting": "[6]", "value": "causing the release of NDM-1 into the solution in a time- and concentration-dependent manner"}
    ]}
  ]
}
